The source of these data is ChEMBL document CHEMBL1201862, “PubChem BioAssay data set” (2004).

Experiment [1] has as its target T1, Apoptotic protease-activating factor 1 (Homo sapiens, UniProt O14727).
T1 sequence (O14727 whole entry): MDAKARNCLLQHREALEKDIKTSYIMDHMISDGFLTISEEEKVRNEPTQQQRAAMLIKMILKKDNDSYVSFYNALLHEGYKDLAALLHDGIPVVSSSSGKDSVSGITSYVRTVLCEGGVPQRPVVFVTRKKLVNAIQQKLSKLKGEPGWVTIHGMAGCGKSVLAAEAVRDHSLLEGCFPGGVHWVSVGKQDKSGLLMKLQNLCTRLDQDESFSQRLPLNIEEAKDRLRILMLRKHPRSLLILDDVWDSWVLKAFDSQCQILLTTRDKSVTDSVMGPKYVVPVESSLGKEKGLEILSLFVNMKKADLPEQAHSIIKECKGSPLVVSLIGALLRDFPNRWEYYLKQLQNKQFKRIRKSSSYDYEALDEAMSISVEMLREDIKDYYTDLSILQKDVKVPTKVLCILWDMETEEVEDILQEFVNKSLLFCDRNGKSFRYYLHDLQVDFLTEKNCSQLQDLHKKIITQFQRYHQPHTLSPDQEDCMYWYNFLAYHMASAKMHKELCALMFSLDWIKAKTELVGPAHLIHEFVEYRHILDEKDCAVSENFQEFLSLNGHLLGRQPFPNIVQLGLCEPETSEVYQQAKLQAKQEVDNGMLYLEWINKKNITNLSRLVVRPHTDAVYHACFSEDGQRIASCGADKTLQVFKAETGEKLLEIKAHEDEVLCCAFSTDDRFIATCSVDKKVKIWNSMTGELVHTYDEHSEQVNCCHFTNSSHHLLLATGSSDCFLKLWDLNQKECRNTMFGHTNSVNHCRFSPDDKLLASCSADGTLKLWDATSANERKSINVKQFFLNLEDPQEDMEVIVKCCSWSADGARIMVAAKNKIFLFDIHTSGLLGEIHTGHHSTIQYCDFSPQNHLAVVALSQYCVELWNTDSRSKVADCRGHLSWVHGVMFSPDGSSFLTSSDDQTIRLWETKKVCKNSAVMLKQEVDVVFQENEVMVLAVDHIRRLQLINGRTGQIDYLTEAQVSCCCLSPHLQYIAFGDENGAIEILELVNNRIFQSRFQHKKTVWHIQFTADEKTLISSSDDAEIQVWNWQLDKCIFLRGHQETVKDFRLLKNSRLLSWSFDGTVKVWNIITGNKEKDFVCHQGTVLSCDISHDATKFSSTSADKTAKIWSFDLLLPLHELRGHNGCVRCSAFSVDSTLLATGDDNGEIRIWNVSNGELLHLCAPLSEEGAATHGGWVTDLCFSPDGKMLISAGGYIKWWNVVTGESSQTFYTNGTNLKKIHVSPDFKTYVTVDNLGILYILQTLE
Type of experiment: functional.

Experiment [2] deals with INS1. Briefly: beta cell apoptosis inhibitors, cytokine rescue, dose response, luminescence, retest (AID 449756).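 Further: cell death triggered by IL-1 beta plus TNF-alpha plus IFN-gamma mixture; protective hits raise ATP signal compared with cytokine alone wells.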 Type of experiment: functional, cell-based. To be noted: Rattus norvegicus.
Experiment [3] deals with T2, Tyrosyl-DNA phosphodiesterase 2 (Homo sapiens, UniProt O95551).
T2 sequence (O95551 whole entry): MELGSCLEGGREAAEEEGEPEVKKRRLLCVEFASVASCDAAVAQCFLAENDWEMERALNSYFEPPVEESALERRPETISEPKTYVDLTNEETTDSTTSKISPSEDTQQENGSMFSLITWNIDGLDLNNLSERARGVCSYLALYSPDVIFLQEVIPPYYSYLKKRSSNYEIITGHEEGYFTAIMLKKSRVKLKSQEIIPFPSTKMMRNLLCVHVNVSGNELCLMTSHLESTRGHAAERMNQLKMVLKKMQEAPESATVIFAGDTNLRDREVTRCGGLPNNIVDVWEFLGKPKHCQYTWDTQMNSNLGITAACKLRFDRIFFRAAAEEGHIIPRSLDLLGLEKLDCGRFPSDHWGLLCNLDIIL
Briefly: human TDP2 enzyme inhibitors, dose response, biochemical, epi absorbance, IC50 (AID 743297).

Experiment [4] addresses T3, Caspase-3 (Homo sapiens, UniProt P42574).
T3 sequence (P42574 whole entry): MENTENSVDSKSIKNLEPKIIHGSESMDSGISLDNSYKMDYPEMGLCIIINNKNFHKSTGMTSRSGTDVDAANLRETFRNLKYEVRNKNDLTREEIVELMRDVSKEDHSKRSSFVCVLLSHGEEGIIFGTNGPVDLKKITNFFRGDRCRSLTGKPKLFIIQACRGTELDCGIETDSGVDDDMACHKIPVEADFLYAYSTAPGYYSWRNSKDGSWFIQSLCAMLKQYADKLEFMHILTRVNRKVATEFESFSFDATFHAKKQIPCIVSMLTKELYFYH
Type of experiment: functional.

Experiment [5] has as its target T4, Sentrin-specific protease 8 (Homo sapiens, UniProt Q96LD8).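 Further: luminescence read-out of SENP8 inhibition, dose-response confirmation following an ultra-high-throughput screen.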
T4 sequence (Q96LD8 whole entry): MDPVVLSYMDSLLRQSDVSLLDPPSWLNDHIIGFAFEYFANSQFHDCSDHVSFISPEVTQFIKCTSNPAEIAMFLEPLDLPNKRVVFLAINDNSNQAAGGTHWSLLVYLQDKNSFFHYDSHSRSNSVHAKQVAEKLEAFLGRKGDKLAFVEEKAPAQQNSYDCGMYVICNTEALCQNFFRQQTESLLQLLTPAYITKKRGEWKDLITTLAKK
In kind it is functional.

SMILES strings stand for the structures. Activity calls are given as the source filed them. For most assays here, no stated cut-off is given here; in the data, actives have a measured IC50 and inactives only a lower limit.

What is called IC50 is the concentration at which inhibition is half-maximal. Broadly, the AC50 is the midpoint of the concentration-response curve, whichever way the signal moves. Consider `Cc1ccccc1NC1=C/C(=N\S(=O)(=O)c2ccc(C(=O)O)cc2)c2ccccc2C1=O`, for which the half-maximal inhibitory concentration (IC50) was 1.59 µM (active) in experiment [1] and 1.41 µM (active) in experiment [3]. Also, the AC50 in experiment [2] is 4.38 µM (active).
Consider `O=C(Nc1ccc(C#Cc2ccccc2)cc1)C1CC1`, for which the IC50 is 43.6 µM (active) in experiment [4] and > 100 µM (inactive) in experiment [5].
Take `Cc1ccc(NC2=C/C(=N/S(=O)(=O)c3cccs3)c3ccccc3C2=O)cc1`: the IC50 was 2.1 µM (active) in experiment [4], 0.244 µM (active) in experiment [5], 0.453 µM (active) in experiment [1] and 3.3 µM (active) in experiment [3]. The AC50 in experiment [2] was 0.72 µM (active).
As to `COC(=O)C[C@]1(C(=O)OC)CN(C#N)N(c2ccc(Cl)cc2)C12c1ccccc1-c1ccccc12`, the AC50 in experiment [2] was 2.77 µM (active).
In the case of `COc1ccc(-c2cc(-c3ccc(C)cc3)[nH]n2)c(O)c1`, the IC50 in experiment [4] is 76.5 µM (active); in experiment [5], 34.6 µM (active).
Take `CCCCn1c(NC(=O)c2ccco2)c(C(=O)OCC)c2nc3ccccc3nc21`: the IC50 was 15.8 µM (active) in experiment [4], 4.36 µM (active) in experiment [5], 13 µM (active) in experiment [1] and > 128 µM (inactive) in experiment [3].
